Like-named read-outs stand apart in the source and are kept apart here. Where a SMILES comes first, the peptide text is derived from it.
Columns and labels:
[1] = simulated gi fluid, pH 6.8
[2] = simulated gi fluid, pH 1.2
[3] = simulated gi fluid; cited from earlier work
in vitro [4] = settings: pig, simulated gi fluid, pH 1.2, t1/2 SGF
in vitro [5] = settings: pig, simulated gi fluid, pH 6.8
[6] = biological target: T1, human oxytocin receptor (OTR) (Homo sapiens, UniProt P30559); settings: cited from earlier work
T1 construct: NIMH PDSP (data provider)
T1 sequence (P30559 1-389): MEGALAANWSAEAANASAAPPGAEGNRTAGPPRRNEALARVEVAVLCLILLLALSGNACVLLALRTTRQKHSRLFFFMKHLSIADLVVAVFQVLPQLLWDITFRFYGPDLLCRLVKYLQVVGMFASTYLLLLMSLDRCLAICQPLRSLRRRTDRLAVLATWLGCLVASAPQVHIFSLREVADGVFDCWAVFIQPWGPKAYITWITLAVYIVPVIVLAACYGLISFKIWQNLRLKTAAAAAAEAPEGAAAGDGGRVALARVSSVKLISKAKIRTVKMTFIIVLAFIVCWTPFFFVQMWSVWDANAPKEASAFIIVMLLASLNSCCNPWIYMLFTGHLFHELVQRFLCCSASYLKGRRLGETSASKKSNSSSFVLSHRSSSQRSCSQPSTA

OTR = settings: cited from earlier work
hOTR = biological target: T2, hOTR (Homo sapiens, UniProt P30559); assay: cell-based
T2 construct: expressed in transfected cells; host or cells: COS-1 cells (ATCC), transient transfection with FuGENE HD
T2 sequence (P30559 1-389): T1 sequence (P30559 1-389)

[7] = biological target: T1, human oxytocin receptor (OTR); settings: cited from earlier work; remark: listed apart in the source

In the case of `C[C@@H]1NC(=O)[C@@H]2CCCN2C(=O)[C@H](CC(N)=O)NC(=O)[C@@H]2CSSC[C@H](N)C(=O)N[C@H]3CSSC[C@H](NC1=O)C(=O)N[C@@H]([C@@H](C)O)C(=O)NCC(=O)N[C@H](C(=O)N[C@@H](Cc1ccc(O)cc1)C(=O)O)CSSC[C@H](NC(=O)[C@H](Cc1ccc(O)cc1)NC(=O)[C@H](CCC(=O)O)NC3=O)C(=O)N2` [Linaclotide] (HELM PEPTIDE1{C.C.E.Y.C.C.N.P.A.C.T.G.C.Y}$PEPTIDE1,PEPTIDE1,1:R3-6:R3|PEPTIDE1,PEPTIDE1,2:R3-10:R3|PEPTIDE1,PEPTIDE1,5:R3-13:R3$$$V2.0), the “t1/2 SIF” value ([1]; pig) is given as 0.9 ± 0.05 h, the “t1/2 SGF” value [2] is given as over 24 h and the “reported t1/2 in SIF” value [3] is given as 0.267 h.

For `CC[C@H](C)[C@@H]1NC(=O)[C@@H]2CCCN2C(=O)[C@@H]2CCCN2C(=O)[C@H]([C@@H](C)CC)NC(=O)[C@H](CO)NC(=O)[C@H](CCCCN)NC(=O)[C@H]([C@@H](C)O)NC(=O)[C@@H]2CSSC[C@H](NC1=O)C(=O)N[C@@H](Cc1ccccc1)C(=O)N1CCC[C@H]1C(=O)N[C@@H](CC(=O)O)C(=O)NCC(=O)N[C@@H](CCCNC(=N)N)C(=O)N2` [SFTI-1], the half-life (in vitro [4]) was over 24 h and the half-life (in vitro [5]) was 16.3 ± 2.7 h.

For `CC[C@@H](C)[C@H]1NC(=O)[C@@H](CCC(N)=O)NC(=O)[C@@H](CC(N)=O)NC(=O)[C@H](NC(=O)[C@H]2CCCN2C(=O)[C@@H](CC(C)C)NC(=O)CN)CSSC[C@H](C(N)=O)NC(=O)[C@@H](Cc2ccc(O)cc2)NC1=O` [all-D-retroinverse-OT], the “activity at the OTR (in words)” value [6] is listed as “inactive” and the half-life (in vitro [5]) is listed as over 24 h.

For `NC(=O)CC[C@@H]1NC(=O)[C@H](Cc2ccccc2)NC(=O)[C@H](Cc2ccc(O)cc2)NC(=O)CCSSC[C@@H](C(=O)N2CCC[C@H]2C(=O)N[C@H](CCCN=C(N)N)C(=O)NCC(N)=O)NC(=O)[C@H](CC(N)=O)NC1=O` [Desmopressin], the “reported t1/2 in SIF” value [3] is given as 0.5 h.

In the case of `CC[C@H](C)[C@@H]1NC(=O)[C@@H]2CCCN2C(=O)[C@H](Cc2c[nH]c3ccccc23)NC(=O)[C@H](CO)NC(=O)[C@@H]2CSSC[C@@H]3NC(=O)[C@H]([C@@H](C)O)NC(=O)[C@H](CCC(=O)O)NC(=O)CNC(=O)[C@@H]4CSSC[C@H](NC(=O)CNC(=O)[C@H](CCC(N)=O)NC(=O)[C@H]([C@@H](C)O)NC(=O)[C@H](Cc5ccc(O)cc5)NC(=O)[C@H](CSSC[C@H](NC1=O)C(=O)N[C@@H](CCCCN)C(=O)N[C@@H](CCCNC(=N)N)C(=O)N[C@@H](CC(N)=O)C(=O)NCC(=O)N[C@@H](CC(C)C)C(=O)N1CCC[C@H]1C(=O)N[C@@H](C(C)C)C(=O)N4)NC(=O)[C@H]([C@@H](C)O)NC(=O)CNC(=O)[C@H](CC(C)C)NC(=O)[C@H]([C@@H](C)O)NC3=O)C(=O)N[C@@H]([C@@H](C)O)C(=O)N2` [Kalata B7], the “t1/2 SIF” value [1] is listed as over 24 h, the “t1/2 SGF” value [2] is listed as over 24 h and the “agonistic activity at the OTR (in words)” value (OTR) is listed as “weak inherent agonistic activity”.

With `CC[C@H](C)[C@@H]1NC(=O)[C@H](Cc2ccc(O)cc2)NC(=O)[C@@H]2CSSC[C@@H]3NC(=O)[C@H](C(C)C)NC(=O)[C@@H]4CCCN4C(=O)[C@H](Cc4c[nH]c5ccccc45)NC(=O)[C@H](CO)NC(=O)[C@@H]4CSSC[C@H](NC(=O)[C@H]([C@@H](C)O)NC(=O)[C@H](CCC(=O)O)NC(=O)CNC(=O)[C@H](CSSC[C@H](NC(=O)[C@H](CC(N)=O)NC(=O)[C@H](CCC(N)=O)NC1=O)C(=O)N[C@@H]([C@@H](C)O)C(=O)N4)NC(=O)[C@H](C(C)C)NC(=O)[C@@H]1CCCN1C(=O)[C@H](CC(C)C)NC(=O)CNC(=O)[C@H](CC(N)=O)NC(=O)[C@H](CCCNC(=N)N)NC(=O)[C@H]([C@@H](C)O)NC3=O)C(=O)N[C@@H](C(C)C)C(=O)NCC(=O)NCC(=O)N[C@@H]([C@@H](C)O)C(=O)N2` [KB1(OT^[2-5])] the EC50 (hOTR) was over 10 µM and the “t1/2 SIF” value [1] was over 24 h.

For `CC[C@H](C)[C@@H]1NC(=O)[C@H](Cc2ccc(O)cc2)NC(=O)[C@@H](N)CSSC[C@@H](C(=O)N2CCC[C@H]2C(=O)N[C@@H](CC(C)C)C(=O)N(C)CC(N)=O)NC(=O)[C@H](CC(N)=O)NC(=O)[C@H](CCC(N)=O)NC1=O` [(Nα-Me)G^9OT], the “t1/2 SIF” value ([1]; pig) is given as 2.9 ± 0.1 h and the “reduced potency compared to native OT” value [7] is given as about 10 fold.
